According to PMC4082664 (Alcoholism, clinical and experimental research, 2011):
Like-named read-outs stand apart in the source and are kept apart here.

Assays:
[1] = target: T1, CYP3A4 (Homo sapiens, UniProt P08684); assay: Spectral binding; details: for Type of spectral binding with CYP3A4: no ethanol; for δAmax (maximum spectral change): 0.5 µM CYP3A4, 25°C, pH 7.4; for Type of spectral binding with CYP3A4 at low concentrations: low concentrations (<0.5 µM), data not shown
[2] = target: T1, CYP3A4; details: ref Kumar et al., 2010; cited from earlier work

T1 sequence (P08684 whole entry): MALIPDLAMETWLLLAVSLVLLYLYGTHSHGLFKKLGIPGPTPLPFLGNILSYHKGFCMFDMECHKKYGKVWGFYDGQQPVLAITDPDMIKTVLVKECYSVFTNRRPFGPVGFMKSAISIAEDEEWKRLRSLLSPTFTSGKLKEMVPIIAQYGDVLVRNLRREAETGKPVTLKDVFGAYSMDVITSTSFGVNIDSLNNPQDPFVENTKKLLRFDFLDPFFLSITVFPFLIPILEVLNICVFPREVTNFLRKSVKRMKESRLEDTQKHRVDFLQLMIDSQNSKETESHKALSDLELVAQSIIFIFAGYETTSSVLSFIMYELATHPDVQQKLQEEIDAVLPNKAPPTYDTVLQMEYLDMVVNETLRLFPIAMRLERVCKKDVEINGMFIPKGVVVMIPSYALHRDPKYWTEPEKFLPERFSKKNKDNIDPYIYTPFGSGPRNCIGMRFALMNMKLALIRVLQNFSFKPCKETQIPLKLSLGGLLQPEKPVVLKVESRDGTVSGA

Structure (SMILES)	Type of spectral binding with CYP3A4 [1]	δAmax (maximum spectral change) ([1]; 20 mM ethanol)	δAmax (maximum spectral change) ([1]; No ethanol)	Type of spectral binding with CYP3A4 at low concentrations [1]	Type of spectral binding with CYP3A4 [2]
CC(C)CN(C[C@@H](O)[C@H](Cc1ccccc1)NC(=O)O[C@H]1CCOC1)S(=O)(=O)c1ccc(N)cc1 [Amprenavir]	did not show detectable spectral binding	–	–	–	–
COC(=O)N[C@H](C(=O)N[C@@H](Cc1ccccc1)[C@@H](O)CN(Cc1ccc(-c2ccccn2)cc1)NC(=O)[C@@H](NC(=O)OC)C(C)(C)C)C(C)(C)C [Atazanavir]	type I	0.012 ± 0.0002	0.013 ± 0.0003	weak type II	–
CC(C)(C)NC(=O)[C@@H]1C[C@@H]2CCCC[C@@H]2CN1C[C@@H](O)[C@H](Cc1ccccc1)NC(=O)[C@H](CC(N)=O)NC(=O)c1ccc2ccccc2n1 [Saquinavir]	type I	0.006 ± 0.0003	0.011 ± 0.0001	–	–
CCC[C@@]1(CCc2ccccc2)CC(O)=C([C@H](CC)c2cccc(NS(=O)(=O)c3ccc(C(F)(F)F)cn3)c2)C(=O)O1 [Tipranavir]	type I	0.012 ± 0.0003	0.015 ± 0.0003	weak type II	–
CCO [ethanol]	–	–	–	–	type I
Cc1c(O)cccc1C(=O)N[C@@H](CSc1ccccc1)[C@H](O)CN1C[C@H]2CCCC[C@H]2C[C@H]1C(=O)NC(C)(C)C [nelfinavir]	–	–	–	–	high-affinity type I
